Assay results as given in patent publication US20240158446A1, “CYCLIC COMPOUND HAVING SELECTIVE INHIBITORY ACTION ON KRAS OVER HRAS AND NRAS” (CHUGAI SEIYAKU KABUSHIKI KAISHA, priority 2021, published 2024).
Where two headings read alike, the source gives them in different places. *1 amine or outer side, *2 acyl side, *3 side chain or, on linkers, in order; H or OH if unused. Where a SMILES comes first, the peptide text is derived from it. Bridges are numbered along the chain shown (N, C = ends). [ ]: non-standard residue; d: D form. The star is where a group is joined. hPhe(3-Cl-4-CF3) = N[C@@H](CCc1ccc(C(F)(F)F)c(Cl)c1)C(=O)O; NPrPhe(4-CF3) = CCCN[C@@H](Cc1ccc(C(F)(F)F)cc1)C(=O)O; X9 = CCCN([C@@H](Cc1ccc(F)cc1)C(=O)[*:2])[*:1]; NMeGly(cPent) = CN[C@H](C(=O)O)C1CCCC1; Pro(4S-Me) = C[C@@H]1CN[C@H](C(=O)O)C1; NMeD = CN[C@@H](CC(=O)O)C(=O)O; NMeL = CN[C@@H](CC(C)C)C(=O)O; Morpholide = C1CN(*)CCO1; NMeA = CN[C@@H](C)C(=O)O; Ac5c = NC1(C(=O)O)CCCC1; Aze = O=C(O)[C@@H]1CCN1; Sar = CNCC(=O)O

Columns and labels:
[1] = target: GDP-bound NRAS wild-type protein (Homo sapiens, UniProt P01111); assay: Binding to NRAS by surface plasmon resonance (SPR), Single Cycle Kinetics; settings: SPR, GDP-bound NRAS wild-type protein vs GDP-bound KRAS wild-type protein
[2] = target: GDP-bound KRAS wild-type protein (Homo sapiens, UniProt P01116); assay: Binding to KRAS by surface plasmon resonance (SPR), Single Cycle Kinetics; settings: GDP-bound KRAS wild-type protein, read-out: KRAS KD
[3] = target: GDP-bound HRAS wild-type protein (Homo sapiens, UniProt P01112); assay: Binding to HRAS by surface plasmon resonance (SPR), Single Cycle Kinetics; settings: SPR, GDP-bound HRAS wild-type protein vs GDP-bound KRAS wild-type protein
[4] = SPR Single Cycle Kinetics, 1:1 binding model

Sequence of GDP-bound HRAS wild-type protein (P01112 whole entry): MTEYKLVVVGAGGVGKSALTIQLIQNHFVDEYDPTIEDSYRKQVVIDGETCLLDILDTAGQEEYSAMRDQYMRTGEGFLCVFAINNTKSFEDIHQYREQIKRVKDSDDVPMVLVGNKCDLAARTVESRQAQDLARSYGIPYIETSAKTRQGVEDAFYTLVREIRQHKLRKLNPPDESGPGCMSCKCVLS
Sequence of GDP-bound KRAS wild-type protein (P01116 whole entry): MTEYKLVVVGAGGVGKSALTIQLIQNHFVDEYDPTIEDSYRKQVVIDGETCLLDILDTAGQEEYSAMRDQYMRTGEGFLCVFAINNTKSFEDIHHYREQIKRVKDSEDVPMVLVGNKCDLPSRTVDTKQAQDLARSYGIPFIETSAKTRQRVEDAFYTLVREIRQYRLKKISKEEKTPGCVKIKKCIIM
Sequence of GDP-bound NRAS wild-type protein (P01111 whole entry): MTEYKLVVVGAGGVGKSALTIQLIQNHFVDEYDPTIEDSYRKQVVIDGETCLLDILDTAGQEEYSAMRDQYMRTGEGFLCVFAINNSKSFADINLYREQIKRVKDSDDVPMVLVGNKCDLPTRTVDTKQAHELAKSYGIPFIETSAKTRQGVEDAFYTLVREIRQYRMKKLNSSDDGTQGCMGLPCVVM

Row | Kd [2, 4] | Kd ([2]; SPR, Single Cycle Kinetics) | SMILES | NRAS/KRAS (ratio of KD value with respect to NRAS to KD value with respect to KRAS) [1] | HRAS/KRAS (ratio of KD value with respect to HRAS to KD value with respect to KRAS) [3] | NRAS/KRAS (ratio of KD value for NRAS to KD value for KRAS) [1] | HRAS/KRAS (ratio of KD value for HRAS to KD value for KRAS) [3]
1 | 22 pM |  | CCO[C@@H]1C[C@H]2C(=O)NC3(CCC3)C(=O)N(C)[C@@H](C3CCCC3)C(=O)N(C)[C@H](C(=O)N3CCOCC3)CC(=O)N(C)[C@@H](C)C(=O)N[C@@H]([C@@H](C)CC)C(=O)N(C)CC(=O)N(C)[C@H]3CCCCN(C3=O)[C@@H](Cc3ccc(C(F)(F)F)cc3)C(=O)N(C)CC(=O)N[C@@H](CCc3cc(F)c(C(F)(F)F)c(F)c3)C(=O)N2C1 [PP0585] | B (a compound having 3 or more and less than 10 is denoted as B) | B (a compound having 3 or more and less than 10 is denoted as B) |  | 
2 |  | 42 pM | CCO[C@@H]1C[C@H]2C(=O)NC3(CCC3)C(=O)N(C)[C@@H](C3CCCC3)C(=O)N(C)[C@H](C(=O)N(C)C)CC(=O)N(C)[C@@H](CC(F)F)C(=O)N[C@@H]([C@@H](C)CC)C(=O)N(C)CC(=O)N(C)[C@H]3C/C=C\CCN(C3=O)[C@@H](Cc3ccc(C(F)(F)F)cc3)C(=O)N(C)CC(=O)N[C@@H](CCc3cc(F)c(C(F)(F)F)c(F)c3)C(=O)N2C1 [PP1120, (2S,8S,12R,14S,20S,23S,27S,30S,36S,38Z)-20-cyclopentyl-27-(2,2-difluoroethyl)-8-[2-[3,5-difluoro-4-(trifluoromethyl)phenyl]ethyl]-12-ethoxy-N,N,4,19,22,26,32,35-octamethyl-30-[(1S)-1-methylpropyl]-3,6,9,15,18,21,25,28,31,34,42-undecaoxo-2-[[4-(trifluoromethyl)phenyl]methyl]spiro[1,4,7,10,16,19,22,26,29,32,35-undecazatricyclo[34.5.1.0^10,14]dotetracont-38-ene-17,1′-cyclobutane]-23-carboxamide] |  |  | A (a compound having 10 or more and less than 20 is denoted as A) | A (a compound having 10 or more and less than 20 is denoted as A)
3 |  | 220 pM | CCC[C@H]1C(=O)N[C@@H]([C@@H](C)CC)C(=O)N(C)CC(=O)N(C)[C@H]2C/C=C\CCN(C2=O)[C@@H](Cc2ccc(C(F)(F)F)cc2)C(=O)N(C)CC(=O)N[C@@H](CCc2cc(F)c(C(F)(F)F)c(F)c2)C(=O)N2C[C@H](OCC)C[C@H]2C(=O)NC2(CC(C)(C)C2)C(=O)N(C)[C@@H](C(CC)CC)C(=O)N(C)[C@H](C(=O)N(C)C)CC(=O)N1C [PP2125] |  |  | AA (a compound having 20 or more is denoted as AA) | A (a compound having 10 or more and less than 20 is denoted as A)
4 | 130 pM |  | CCCN1C(=O)[C@@H]2CCN2C(=O)[C@H](C)N(C)C(=O)[C@H]([C@@H](C)CC)NC(=O)[C@H](CC(C)C)N(C)C(=O)C[C@@H](C(=O)N2CCOCC2)N(C)C(=O)[C@H](C2CCCC2)N(C)C(=O)C2(CCCC2)NC(=O)[C@@H]2CCCN2C(=O)[C@H](CCc2ccc(C(F)(F)F)c(Cl)c2)NC(=O)CN(C)C(=O)[C@@H]1Cc1ccc(F)cc1 [PP0219] ([NMeL]I[NMeA][Aze][X9][Sar][hPhe(3-Cl-4-CF3)]P[Ac5c][NMeGly(cPent)][NMeD]-Morpholide; lactam N-11) |  |  | C (A compound having a KD ratio of 0.1 or more and less than 3 is denoted as C) | B (a compound having 3 or more and less than 10 is denoted as B)
5 |  | 82 pM | CCC[C@H]1C(=O)N[C@@H]([C@@H](C)CC)C(=O)N(C)CC(=O)N(C)[C@H]2C/C=C\CCN(C2=O)[C@@H](Cc2ccc(C)cc2)C(=O)N(C)CC(=O)N[C@@H](CCc2ccc(C(F)(F)F)c(Cl)c2)C(=O)N2C[C@H](OCC)C[C@H]2C(=O)NC2(CC(C)(C)C2)C(=O)N(C)[C@@H](CC(C)(C)C)C(=O)N(C)[C@H](C(=O)N(C)C)CC(=O)N1C [PP2230] |  |  | A (a compound having 10 or more and less than 20 is denoted as A) | A (a compound having 10 or more and less than 20 is denoted as A)
6 | 180 pM |  | CCCN1C(=O)CN(C)C(=O)CN(C)C(=O)[C@H]([C@@H](C)CC)NC(=O)[C@H](CC(C)C)N(C)C(=O)C[C@@H](C(=O)N2CCOCC2)N(C)C(=O)[C@H](C2CCCC2)N(C)C(=O)C2(CCCC2)NC(=O)[C@@H]2C[C@H](C)CN2C(=O)[C@H](CCc2ccc(C(F)(F)F)c(Cl)c2)NC(=O)CN(C)C(=O)[C@@H]1Cc1ccc(C(F)(F)F)cc1 [PP0447] ([NMeL]I[Sar][Sar][NPrPhe(4-CF3)][Sar][hPhe(3-Cl-4-CF3)][Pro(4S-Me)][Ac5c][NMeGly(cPent)][NMeD]-Morpholide; lactam N-11) | B (a compound having 3 or more and less than 10 is denoted as B) | C (A compound having a KD ratio of 0.1 or more and less than 3 is denoted as C) |  | 
